Source: patent US7834187B2, “Crystalline variable hydrate of (S)-6-(4-(2-((3-9H-carbazol-4-yloxy)-2-hydroxypropyl)amino)-2-methylpropyl)phenoxy)-3-pyridinecarbox amide hemisuccinate salt” (Eli Lilly and Company, priority 2004, dated 2010)

Legend:
B3 receptor = B3 receptor (Homo sapiens, UniProt P13945); conditions: single dose; as described in WO 98/09625; cited from earlier work
[1] = Moisture sorption analysis; type: physicochemical; conditions: between 10 and 80% relative humidity
Description: Various methods, including moisture sorption analysis, Karl Fischer analysis, X-ray powder diffraction (XRD) and ^13C solid-state nuclear magnetic resonance (SSNMR), are used to characterize SAM Classic Hydrate.
The SAM Classic Hydrate crystal structure retains approximately 6-11% water between 10 and 80% relative humidity. The hydrate rapidly equilibrates with the atmosphere, such that the water content observed by analytical techniques is a function of the relative humidity at which the sample was equilabrated.

Sequence of B3 receptor (P13945 whole entry): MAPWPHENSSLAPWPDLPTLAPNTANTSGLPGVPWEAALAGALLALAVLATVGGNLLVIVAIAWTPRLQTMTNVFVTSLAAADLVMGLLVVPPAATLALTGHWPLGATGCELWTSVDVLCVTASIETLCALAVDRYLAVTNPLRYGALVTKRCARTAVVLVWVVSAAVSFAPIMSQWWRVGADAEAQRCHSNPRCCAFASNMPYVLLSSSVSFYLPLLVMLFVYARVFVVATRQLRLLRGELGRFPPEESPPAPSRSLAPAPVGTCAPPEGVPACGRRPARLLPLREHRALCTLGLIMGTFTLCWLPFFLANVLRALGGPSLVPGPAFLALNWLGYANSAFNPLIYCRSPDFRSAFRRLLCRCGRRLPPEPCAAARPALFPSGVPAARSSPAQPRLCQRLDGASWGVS

| SMILES | % of isoproterenol's response (B3 receptor) | water retained by the crystal structure (moisture sorption profile) [1] |
| --- | --- | --- |
| CC(C)(Cc1ccc(Oc2ccc(C(N)=O)cn2)cc1)NC[C@H](O)COc1cccc2[nH]c3ccccc3c12 [SAM Classic free base] | at least 30% |  |
| CC(C)(Cc1ccc(Oc2ccc(C(N)=O)cn2)cc1)NC[C@H](O)COc1cccc2[nH]c3ccccc3c12.CC(C)(Cc1ccc(Oc2ccc(C(N)=O)cn2)cc1)NC[C@H](O)COc1cccc2[nH]c3ccccc3c12.O=C(O)CCC(=O)O [SAM Classic Hydrate, (S)-(3-pyridinecarboxamide,6-[4-[2-[[3-(9H-carbazol-4-yloxy)-2-hydroxypropyl]amino]-2-methylpropyl]phenoxy])-hemi-succinate salt] |  | 6-11% |
